Measurements taken from patent publication US20020137929A1, “1 - (3-heterocyclylphenyl) isothiourea, -isourea, -guanidine and -amidine herbicidal agents” (Intellectual Property Department, BASF Aktiengesellschaft, priority 1998, published 2002).

Columns and labels:
SETVI (Foxtail, Green) = test: Postemergence herbicidal evaluation; format: in vivo, Setaria viridis; details: postemergence
Method in brief: (§1)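 Herbicidal effect was judged by eye on a 0–9 scale covering stand, vigor, deformity, size and chlorosis, compared with controls, four to five weeks after seedlings about two weeks old were sprayed (40 psi, ~0.0156–0.500 kg/ha).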

ZEAMX (Corn, Field) [1] = test: Postemergence herbicidal evaluation; format: in vivo, Zea mays; details: postemergence
Method in brief: as §1

CASOB (Sicklepod) = test: Preemergence herbicidal evaluation; format: in vivo, Cassia obtusifolia; details: rated 4-5 weeks after treatment, rating scale 0-9
Method in brief: (§2)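 Each species is sown separately in potting soil over roughly an inch of soil before any emergence. The soil surface then receives an aqueous acetone spray delivering about 0.0156 to 0.500 kg/ha of compound. After four to five weeks, injury is scored from 0 to 9 relative to a control.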

ZEAMX (Corn, Field) [2] = test: Preemergence herbicidal evaluation; format: in vivo, Zea mays; details: rated 4-5 weeks after treatment, rating scale 0-9
Method in brief: as §2

[3] = system: TRZAWR (Wheat, Winter, cv Riband); test: Preemergence herbicidal evaluation; format: in vivo, Triticum aestivum; details: rated 4-5 weeks after treatment, rating scale 0-9
Method in brief: as §2

[4] = system: GLXMAW (Soybean, Williams); test: Preemergence herbicidal evaluation; format: in vivo, Glycine max, (L.) Merr. cv Williams; details: rated 4-5 weeks after treatment, rating scale 0-9
Method in brief: as §2

ECHCG (Barnyardgrass) [5] = test: Postemergence herbicidal evaluation; format: in vivo, Echinochloa crus-galli; details: postemergence
Method in brief: as §1

ORYSAT (Rice, Tebonnet) = test: Postemergence herbicidal evaluation; format: in vivo, Oryza sativa, (L.) Tebonnet; details: postemergence
Method in brief: as §1

ABUTH (Velvetleaf) [6] = test: Preemergence herbicidal evaluation; format: in vivo, Abutilon theophrasti; details: rated 4-5 weeks after treatment, rating scale 0-9
Method in brief: as §2

[7] = system: CHEAL (Lambsquarters, Common); test: Preemergence herbicidal evaluation; format: in vivo, Chenopodium album; details: rated 4-5 weeks after treatment, rating scale 0-9
Method in brief: as §2

[8] = system: IPOHE (Morningglory, Ivyleaf); test: Postemergence herbicidal evaluation; format: in vivo, Ipomoea hederacea; details: postemergence
Method in brief: as §1

ECHCG (Barnyardgrass) [9] = test: Preemergence herbicidal evaluation; format: in vivo, Echinochloa crus-galli; details: rated 4-5 weeks after treatment, rating scale 0-9
Method in brief: as §2

[10] = system: CHEAL (Lambsquarters, Common); test: Postemergence herbicidal evaluation; format: in vivo, Chenopodium album; details: postemergence
Method in brief: as §1

ABUTH (Velvetleaf) [11] = test: Postemergence herbicidal evaluation; format: in vivo, Abutilon theophrasti; details: postemergence
Method in brief: as §1

[12] = system: IPOHE (Morningglory, Ivyleaf); test: Preemergence herbicidal evaluation; format: in vivo, Ipomoea hederacea; details: rated 4-5 weeks after treatment, rating scale 0-9
Method in brief: as §2

With `Cn1c(C(F)(F)F)cc(=O)n(-c2cc(N=C3SCC(=O)N3Cc3cc(Cl)cc(Cl)c3)c(Cl)cc2F)c1=O` [Compound 150, 3-{4-Chloro-5-{[3-(3,5-dichlorobenzyl)-4-oxo-2-thiazolidinylidene]amino}-2-fluorophenyl}-1-methyl-6-(trifluoromethyl)-2,4(1H,3H)-pyrimidinedione] the “Herbicidal rating SETVI” value (SETVI (Foxtail, Green); rate 0.0156 kg/ha) was 1.0, the “Herbicidal rating SETVI” value (SETVI (Foxtail, Green); rate 0.0313 kg/ha) was 1.0 and the “Herbicidal rating SETVI” value (SETVI (Foxtail, Green); rate 0.0625 kg/ha) was 5.0. The “Herbicidal rating ZEAMX” value (ZEAMX (Corn, Field) [1]; rate 0.0156 kg/ha) was 4.0, the “Herbicidal rating ZEAMX” value (ZEAMX (Corn, Field) [1]; rate 0.0313 kg/ha) was 4.0 and the “Herbicidal rating ZEAMX” value (ZEAMX (Corn, Field) [1]; rate 0.0625 kg/ha) was 4.0. For the same compound, the “Preemergence herbicidal rating CASOB” value (CASOB (Sicklepod); rate 0.0313 kg/ha) was 0.0, the “Preemergence herbicidal rating CASOB” value (CASOB (Sicklepod); rate 0.0625 kg/ha) was 2.0 and the “Preemergence herbicidal rating CASOB” value (CASOB (Sicklepod); rate 0.1250 kg/ha) was 1.0. The “Preemergence herbicidal rating CASOB” value (CASOB (Sicklepod); rate 0.2500 kg/ha) was 2.0, the “Preemergence herbicidal rating ZEAMX” value (ZEAMX (Corn, Field) [2]; rate 0.0313 kg/ha) was 0.0 and the “Preemergence herbicidal rating ZEAMX” value (ZEAMX (Corn, Field) [2]; rate 0.0625 kg/ha) was 1.0. For the same compound, the “Preemergence herbicidal rating ZEAMX” value (ZEAMX (Corn, Field) [2]; rate 0.1250 kg/ha) was 2.0, the “Preemergence herbicidal rating ZEAMX” value (ZEAMX (Corn, Field) [2]; rate 0.2500 kg/ha) was 1.0 and the “Preemergence herbicidal rating TRZAWR” value ([3]; rate 0.0313 kg/ha) was 0.0. For the same compound, the “Preemergence herbicidal rating TRZAWR” value ([3]; rate 0.0625 kg/ha) was 0.0, the “Preemergence herbicidal rating TRZAWR” value ([3]; rate 0.1250 kg/ha) was 1.0 and the “Preemergence herbicidal rating TRZAWR” value ([3]; rate 0.2500 kg/ha) was 1.0. For the same compound, the “Preemergence herbicidal rating GLXMAW” value ([4]; rate 0.0313 kg/ha) was 0.0, the “Preemergence herbicidal rating GLXMAW” value ([4]; rate 0.0625 kg/ha) was 0.0 and the “Preemergence herbicidal rating GLXMAW” value ([4]; rate 0.1250 kg/ha) was 0.0. For the same compound, the “Preemergence herbicidal rating GLXMAW” value ([4]; rate 0.2500 kg/ha) was 2.0, the “Herbicidal rating ECHCG” value (ECHCG (Barnyardgrass) [5]; rate 0.0156 kg/ha) was 2.0 and the “Herbicidal rating ECHCG” value (ECHCG (Barnyardgrass) [5]; rate 0.0313 kg/ha) was 1.0. For the same compound, the “Herbicidal rating ECHCG” value (ECHCG (Barnyardgrass) [5]; rate 0.0625 kg/ha) was 2.0, the “Herbicidal rating ORYSAT” value (ORYSAT (Rice, Tebonnet); rate 0.0156 kg/ha) was 2.0 and the “Herbicidal rating ORYSAT” value (ORYSAT (Rice, Tebonnet); rate 0.0313 kg/ha) was 2.5. For the same compound, the “Herbicidal rating ORYSAT” value (ORYSAT (Rice, Tebonnet); rate 0.0625 kg/ha) was 3.0, the “Preemergence herbicidal rating ABUTH” value (ABUTH (Velvetleaf) [6]; rate 0.0313 kg/ha) was 0.0 and the “Preemergence herbicidal rating ABUTH” value (ABUTH (Velvetleaf) [6]; rate 0.0625 kg/ha) was 4.0. For the same compound, the “Preemergence herbicidal rating ABUTH” value (ABUTH (Velvetleaf) [6]; rate 0.1250 kg/ha) was 9.0, the “Preemergence herbicidal rating ABUTH” value (ABUTH (Velvetleaf) [6]; rate 0.2500 kg/ha) was 9.0 and the “Preemergence herbicidal rating CHEAL” value ([7]; rate 0.0313 kg/ha) was 9.0. The “Preemergence herbicidal rating CHEAL” value ([7]; rate 0.0625 kg/ha) was 9.0, the “Preemergence herbicidal rating CHEAL” value ([7]; rate 0.1250 kg/ha) was 9.0 and the “Preemergence herbicidal rating CHEAL” value ([7]; rate 0.2500 kg/ha) was 9.0. The “Herbicidal rating IPOHE” value ([8]; rate 0.0156 kg/ha) was 9.0, the “Herbicidal rating IPOHE” value ([8]; rate 0.0313 kg/ha) was 9.0 and the “Herbicidal rating IPOHE” value ([8]; rate 0.0625 kg/ha) was 9.0. The “Preemergence herbicidal rating ECHCG” value (ECHCG (Barnyardgrass) [9]; rate 0.0313 kg/ha) was 0.0, the “Preemergence herbicidal rating ECHCG” value (ECHCG (Barnyardgrass) [9]; rate 0.0625 kg/ha) was 0.0 and the “Preemergence herbicidal rating ECHCG” value (ECHCG (Barnyardgrass) [9]; rate 0.1250 kg/ha) was 2.0. For the same compound, the “Preemergence herbicidal rating ECHCG” value (ECHCG (Barnyardgrass) [9]; rate 0.2500 kg/ha) was 4.0, the “Herbicidal rating CHEAL” value ([10]; rate 0.0156 kg/ha) was 9.0 and the “Herbicidal rating CHEAL” value ([10]; rate 0.0313 kg/ha) was 9.0. The “Herbicidal rating CHEAL” value ([10]; rate 0.0625 kg/ha) was 9.0, the “Herbicidal rating ABUTH” value (ABUTH (Velvetleaf) [11]; rate 0.0156 kg/ha) was 9.0 and the “Herbicidal rating ABUTH” value (ABUTH (Velvetleaf) [11]; rate 0.0313 kg/ha) was 9.0. The “Herbicidal rating ABUTH” value (ABUTH (Velvetleaf) [11]; rate 0.0625 kg/ha) was 9.0, the “Preemergence herbicidal rating IPOHE” value ([12]; rate 0.0313 kg/ha) was 0.0 and the “Preemergence herbicidal rating IPOHE” value ([12]; rate 0.0625 kg/ha) was 0.0. The “Preemergence herbicidal rating IPOHE” value ([12]; rate 0.1250 kg/ha) was 9.0 and the “Preemergence herbicidal rating IPOHE” value ([12]; rate 0.2500 kg/ha) was 9.0.
